The values below come from patent publication US20240246964A1 (Arbutus Biopharma Corporation, priority 2021, published 2024).

SMILES strings stand for the structures.

The assay deals with human PD-L1 (Homo sapiens (Human), UniProt Q9NZQ7). Put plainly: T cell activation luciferase reporter cell culture system (T Cell Activation Assay). Type of assay: cell-based. As to conditions: luciferase reporter assay; PD-L1 aAPC/CHO-K1 cells with PD-1 effector Jurkat T cells. Background: Reporter assays use an easily measured gene product as a stand-in for the process of interest.
Sequence of human PD-L1 (Q9NZQ7 19-290): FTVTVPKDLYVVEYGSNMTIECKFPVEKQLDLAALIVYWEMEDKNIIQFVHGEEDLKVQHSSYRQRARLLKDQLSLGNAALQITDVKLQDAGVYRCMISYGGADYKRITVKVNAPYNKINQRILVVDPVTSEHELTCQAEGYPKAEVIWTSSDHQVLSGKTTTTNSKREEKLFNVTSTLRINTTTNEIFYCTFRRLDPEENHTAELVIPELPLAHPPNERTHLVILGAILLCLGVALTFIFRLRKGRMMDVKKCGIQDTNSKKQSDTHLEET

As for `COc1cc(-c2nccc(-c3cccc(-c4ccc5c(CNC6CCS(=O)(=O)CC6)cn(C)c5n4)c3Cl)c2Cl)ccc1CNC1CCN(C(C)=O)CC1` [Example 558, 1-(4-((4-(3-Chloro-4-(2-chloro-3-(3-(((1,1-dioxidotetrahydro-2H-thiopyran-4-yl)amino)methyl)-1-methyl-1H-pyrrolo[2,3-b]pyridin-6-yl)phenyl)pyridin-2-yl)-2-methoxybenzyl)amino)piperidin-1-yl)ethan-1-one], the concentration for a half-maximal effect (EC50) was at least 10 µM.

With `COc1nc(-c2cccc(-c3ccnc(-c4ccc5c(c4)S(=O)(=O)CCN(C)C5)c3Cl)c2Cl)ccc1CNC[C@@H]1CCC(=O)N1` [Example 561, (S)-5-((((6-(2-Chloro-3-(3-chloro-2-(4-methyl-1,1-dioxido-2,3,4,5-tetrahydrobenzo[f][1,4]thiazepin-8-yl)pyridin-4-yl)phenyl)-2-methoxypyridin-3-yl)methyl)amino)methyl)pyrrolidin-2-one], the concentration for a half-maximal effect (EC50) was at least 10 µM.

As for `COc1cc(-c2ncnc(-c3cccc(-c4ccc(CN5CCN(C(C)=O)CC5)c(OC)n4)c3Cl)c2Cl)ccc1CN1CCN(C(C)=O)CC1` [Example 562, 1-(4-((6-(3-(6-(4-((4-acetylpiperazin-1-yl)methyl)-3-methoxyphenyl)-5-chloropyrimidin-4-yl)-2-chlorophenyl)-2-methoxypyridin-3-yl)methyl)piperazin-1-yl)ethan-1-one], the EC50 is at least 10 µM.

`COc1cc(-c2ncnc(-c3cccc(-c4ccc(CN5CC6(CC(O)C6)C5)c(OC)n4)c3Cl)c2Cl)ccc1CN1CC2(CC(O)C2)C1` [Example 568, 2-((6-(2-chloro-3-(5-chloro-6-(4-((6-hydroxy-2-azaspiro[3.3]heptan-2-yl)methyl)-3-methoxyphenyl)pyrimidin-4-yl)phenyl)-2-methoxypyridin-3-yl)methyl)-2-azaspiro[3.3]heptan-6-ol] gave an EC50 of 0.187 µM.

Regarding `COc1cc(-c2nccc(-c3cccc(-c4ccc(CN5CC6(CC(=O)N(C)C6)C5)c(OC)n4)c3Cl)c2Cl)ccc1CN1CC2(CC(=O)N(C)C2)C1` [Example 571, 2-(4-(3-chloro-4-(2-chloro-3-(6-methoxy-5-((6-methyl-7-oxo-2,6-diazaspiro[3.4]octan-2-yl)methyl)pyridin-2-yl)phenyl)pyridin-2-yl)-2-methoxybenzyl)-6-methyl-2,6-diazaspiro[3.4]octan-7-one], a half-maximal effect (EC50) was put at 0.0875 µM.

As for `COc1cc(-c2nccc(-c3cccc(-c4ccc(CN5CC6(CNC(=O)C6)C5)c(OC)n4)c3C(F)(F)F)c2Cl)ccc1CN1CC2(CNC(=O)C2)C1` [Example 576, 2-((6-(3-(3-chloro-2-(3-methoxy-4-((7-oxo-2,6-diazaspiro[3.4]octan-2-yl)methyl)phenyl)pyridin-4-yl)-2-(trifluoromethyl)phenyl)-2-methoxypyridin-3-yl)methyl)-2,6-diazaspiro[3.4]octan-7-one], the EC50 was at least 10 µM.

`COc1cc(-c2nccc(-c3cccc(-c4ccc(CN5CC6(C5)CN(C(C)=O)C6)c(OC)n4)c3C(F)(F)F)c2Cl)ccc1CN1CC2(C1)CN(C(C)=O)C2` [Example 577, 1-(6-((6-(3-(2-(4-((6-Acetyl-2,6-diazaspiro[3.3]heptan-2-yl)methyl)-3-methoxyphenyl)-3-chloropyridin-4-yl)-2-(trifluoromethyl)phenyl)-2-methoxypyridin-3-yl)methyl)-2,6-diazaspiro[3.3]heptan-2-yl)ethan-1-one] registered a half-maximal effective concentration (EC50) of at least 10 µM.

With `COc1cc(-c2nccc(-c3cccc(-c4ccc(CNC[C@H](C)O)c(OC)n4)c3C(F)(F)F)c2Cl)ccc1CNC[C@H](C)O` [Example 580, (S)-1-(((6-(3-(3-Chloro-2-(4-((((S)-2-hydroxypropyl)amino)methyl)-3-methoxyphenyl)pyridin-4-yl)-2-(trifluoromethyl)phenyl)-2-methoxypyridin-3-yl)methyl)amino)propan-2-ol], the 50% effective concentration (EC50) is at least 10 µM.

In turn, `COc1cc(-c2ncnc(-c3cccc(-c4ccc(CNCCO)c(OC)n4)c3Cl)c2Cl)ccc1CNCCO` [Example 581, 2-(((6-(2-chloro-3-(5-chloro-6-(4-(((2-hydroxyethyl)amino)methyl)-3-methoxyphenyl)pyrimidin-4-yl)phenyl)-2-methoxypyridin-3-yl)methyl)amino)ethan-1-ol] showed a concentration for a half-maximal effect (EC50) of 0.0431 µM.

In turn, `CCOc1cc(-c2nccc(-c3cccc(-c4ccc(CNC5CCN(C(C)=O)CC5)c(OC)n4)c3Cl)c2Cl)cn2nc(CN[C@H]3CC[C@H](O)CC3)nc12` [Example 583, 1-(4-(((6-(2-Chloro-3-(3-chloro-2-(8-ethoxy-2-((((1r,4r)-4-hydroxycyclohexyl)amino)methyl)-[1,2,4]triazolo[1,5-a]pyridin-6-yl)pyridin-4-yl)phenyl)-2-methoxypyridin-3-yl)methyl)amino)piperidin-1-yl)ethan-1-one] came in with a concentration giving a half-maximal response (EC50) of at least 10 µM.

As to `CCOc1cc(-c2nccc(-c3cccc(-c4ccc(CNC5CCN(C(C)=O)CC5)c(OC)n4)c3Cl)c2Cl)cn2nc(CNC3CCN(C(C)=O)CC3)nc12` [Example 585, 1-(4-(((6-(4-(3-(5-(((1-Acetylpiperidin-4-yl)amino)methyl)-6-methoxypyridin-2-yl)-2-chlorophenyl)-3-chloropyridin-2-yl)-8-ethoxy-[1,2,4]triazolo[1,5-a]pyridin-2-yl)methyl)amino)piperidin-1-yl)ethan-1-one], the half-maximal effective concentration (EC50) was at least 10 µM.

Turning to `CCOc1cc(-c2nccc(-c3cccc(-c4ccc(CNC5CCN(C(C)=O)CC5)c(OC)n4)c3Cl)c2Cl)cn2nc(CN3CC4(CNC(=O)C4)C3)nc12` [Example 586, 2-((6-(4-(3-(5-(((1-Acetylpiperidin-4-yl)amino)methyl)-6-methoxypyridin-2-yl)-2-chlorophenyl)-3-chloropyridin-2-yl)-8-ethoxy-[1,2,4]triazolo[1,5-a]pyridin-2-yl)methyl)-2,6-diazaspiro[3.4]octan-7-one], it took 0.205 µM to reach a half-maximal effect (EC50).

With `COc1cc(-c2nccc(-c3cccc(-c4ccc(CN[C@H]5CC[C@H](O)CC5)c(OC)n4)c3C(F)(F)F)c2Cl)ccc1CN[C@H]1CC[C@H](O)CC1` [Example 588, (1r,4r)-4-(((6-(3-(3-Chloro-2-(4-((((1r,4r)-4-hydroxycyclohexyl)amino)methyl)-3-methoxyphenyl)pyridin-4-yl)-2-(trifluoromethyl)phenyl)-2-methoxypyridin-3-yl)methyl)amino)cyclohexan-1-ol], the concentration for a half-maximal effect (EC50) is at least 10 µM.

For `COc1cc(-c2ncnc(-c3cccc(-c4ccc(CN5CC6(C5)CN(C(C)=O)C6)c(OC)n4)c3Cl)c2Cl)ccc1CN1CC2(C1)CN(C(C)=O)C2` [Example 589, 1-(6-((6-(3-(6-(4-((6-Acetyl-2,6-diazaspiro[3.3]heptan-2-yl)methyl)-3-methoxyphenyl)-5-chloropyrimidin-4-yl)-2-chlorophenyl)-2-methoxypyridin-3-yl)methyl)-2,6-diazaspiro[3.3]heptan-2-yl)ethan-1-one], the concentration for a half-maximal effect (EC50) was at least 10 µM.

`COc1cc(-c2nccc(-c3cccc(NC(=O)c4ccc(CN5CC6(CNC(=O)C6)C5)cn4)c3C)c2Cl)ccc1CN1CC2(CNC(=O)C2)C1` [Example 590, N-(3-(3-Chloro-2-(3-methoxy-4-((7-oxo-2,6-diazaspiro[3.4]octan-2-yl)methyl)phenyl)pyridin-4-yl)-2-methylphenyl)-5-((7-oxo-2,6-diazaspiro[3.4]octan-2-yl)methyl)picolinamide] displayed a concentration giving a half-maximal response (EC50) of 1.2 µM.

A word on the EC50: it is the concentration at which the effect is half-maximal. Low readings indicate an effect from little substance, high ones a need for much substance.
